The source of these data is ChEMBL document CHEMBL1909046, “DrugMatrix in vitro pharmacology data”.

The target of the first data set is Insulin receptor (Rattus norvegicus, UniProt P15127). Type of data set: cell membranes, Wistar, Liver, Membrane. Note: in other assays of this panel Not Active means under 50% inhibition at 10 µM.
Sequence of Insulin receptor (P15127 27-759 limits assumed): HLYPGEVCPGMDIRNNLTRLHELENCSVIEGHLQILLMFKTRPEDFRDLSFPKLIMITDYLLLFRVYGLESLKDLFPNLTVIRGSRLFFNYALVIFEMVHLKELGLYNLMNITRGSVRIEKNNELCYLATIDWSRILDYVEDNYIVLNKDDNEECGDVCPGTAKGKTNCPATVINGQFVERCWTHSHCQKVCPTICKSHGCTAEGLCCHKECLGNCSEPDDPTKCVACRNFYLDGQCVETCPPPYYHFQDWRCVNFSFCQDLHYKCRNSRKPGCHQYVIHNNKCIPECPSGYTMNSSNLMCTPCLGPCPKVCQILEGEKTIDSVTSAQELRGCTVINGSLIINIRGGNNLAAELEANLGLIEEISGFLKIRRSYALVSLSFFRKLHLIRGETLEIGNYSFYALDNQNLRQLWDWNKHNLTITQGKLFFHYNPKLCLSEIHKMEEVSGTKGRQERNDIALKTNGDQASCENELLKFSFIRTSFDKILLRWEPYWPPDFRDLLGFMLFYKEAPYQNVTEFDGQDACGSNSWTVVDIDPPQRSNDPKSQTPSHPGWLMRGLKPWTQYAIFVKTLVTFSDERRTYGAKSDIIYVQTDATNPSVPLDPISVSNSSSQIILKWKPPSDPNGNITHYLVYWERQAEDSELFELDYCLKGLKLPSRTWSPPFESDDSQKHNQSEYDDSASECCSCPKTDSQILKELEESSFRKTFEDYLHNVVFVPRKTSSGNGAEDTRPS
Sequence of Insulin receptor (P15127 764-1383 limits assumed): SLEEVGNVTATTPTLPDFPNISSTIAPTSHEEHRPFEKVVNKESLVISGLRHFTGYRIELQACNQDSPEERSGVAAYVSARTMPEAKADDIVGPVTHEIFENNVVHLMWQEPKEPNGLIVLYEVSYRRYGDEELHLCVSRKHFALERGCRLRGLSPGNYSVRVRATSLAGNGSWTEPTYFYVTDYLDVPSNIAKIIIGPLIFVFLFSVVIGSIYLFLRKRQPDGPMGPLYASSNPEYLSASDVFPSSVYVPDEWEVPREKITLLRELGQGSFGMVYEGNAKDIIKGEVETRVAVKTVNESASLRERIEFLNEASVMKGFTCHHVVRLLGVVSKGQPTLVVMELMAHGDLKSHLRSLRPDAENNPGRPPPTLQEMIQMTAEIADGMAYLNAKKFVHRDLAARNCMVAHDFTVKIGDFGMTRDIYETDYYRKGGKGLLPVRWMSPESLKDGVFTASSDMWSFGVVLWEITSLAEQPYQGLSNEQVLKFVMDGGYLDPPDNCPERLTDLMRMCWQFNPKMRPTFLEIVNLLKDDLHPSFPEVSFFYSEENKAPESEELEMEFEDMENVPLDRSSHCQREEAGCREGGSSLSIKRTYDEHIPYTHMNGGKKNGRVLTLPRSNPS
Conditions: not given
As to `CC(C)(CO)C(O)C(=O)NCCCO` (stereo not given) [PANTHENOL], the half-maximal inhibitory concentration (IC50) (as a rule, the concentration that inhibits the measured activity by half) is on record as “Not Active”.

As to `COc1ccc(Cc2nccc3cc(OC)c(OC)cc23)cc1OC` [PAPAVERINE], the IC50 result is “Not Active”.

Take `CCCCC1C(=O)N(c2ccccc2)N(c2ccccc2)C1=O` [PHENYLBUTAZONE]: the IC50 entry is recorded as “Not Active”.

With `Cc1cccc(Nc2cc(Cl)nc(SCC(=O)O)n2)c1C` [PIRINIXIC ACID], the concentration for half-maximal inhibition (IC50) result is reported as “Not Active”.

Turning to `CC[C@H](C)C(=O)O[C@H]1C[C@H](O)C=C2C=C[C@H](C)[C@H](CC[C@@H](O)C[C@@H](O)CC(=O)O)[C@H]21` [PRAVASTATIN], the half-inhibitory concentration (IC50) result is “Not Active”.

For the compound `CC(C)(Sc1cc(C(C)(C)C)c(O)c(C(C)(C)C)c1)Sc1cc(C(C)(C)C)c(O)c(C(C)(C)C)c1` [PROBUCOL], the half-maximal inhibitory concentration (IC50) entry is given as “Not Active”.

For the compound COBALT(II) ACETYLACETONATE, the IC50 entry is listed as “Not Active” and the Ki (as a rule, the equilibrium dissociation constant of an inhibitor or competing ligand from its target) was “Not Active”.

For POLYVINYL ALCOHOL, the IC50 entry is reported as “Not Active” and the Ki entry is “Not Active”.

Staying with this data set, now noted: read-out: IC50.
Take INSULIN HUMAN: the IC50 is 1.93 nM.

The same data set, now with this note: read-out: Ki.
INSULIN HUMAN: the Ki was 1.82 nM.

Test system in the next data set: not listed separately
The data set is described as follows: DRUGMATRIX: Glutamate, Kainate radioligand binding (ligand: [3H] Kainic acid). The settings on record: Not Active = under 50% inhibition at 10 µM. In kind it is cell membranes, Rattus norvegicus, Wistar, Brain, Membrane.
As for `CC(C)(CO)C(O)C(=O)NCCCO` (stereo not given) [PANTHENOL], the IC50 result is given as “Not Active” and the Ki result is given as “Not Active”.

As to `COc1ccc(Cc2nccc3cc(OC)c(OC)cc23)cc1OC` [PAPAVERINE], the concentration for half-maximal inhibition (IC50) result is recorded as “Not Active” and the inhibitory constant (Ki) entry was “Not Active”.

As to `CCCCC1C(=O)N(c2ccccc2)N(c2ccccc2)C1=O` [PHENYLBUTAZONE], the 50% inhibitory concentration (IC50) entry is reported as “Not Active” and the Ki result is on record as “Not Active”.

Consider `Cc1cccc(Nc2cc(Cl)nc(SCC(=O)O)n2)c1C` [PIRINIXIC ACID], for which the IC50 entry is “Not Active” and the Ki result was “Not Active”.

Turning to `CC[C@H](C)C(=O)O[C@H]1C[C@H](O)C=C2C=C[C@H](C)[C@H](CC[C@@H](O)C[C@@H](O)CC(=O)O)[C@H]21` [PRAVASTATIN], the IC50 entry was “Not Active” and the Ki entry was “Not Active”.

Take `CC(C)(Sc1cc(C(C)(C)C)c(O)c(C(C)(C)C)c1)Sc1cc(C(C)(C)C)c(O)c(C(C)(C)C)c1` [PROBUCOL]: the IC50 entry is reported as “Not Active” and the Ki result is recorded as “Not Active”.

For the compound COBALT(II) ACETYLACETONATE, the IC50 entry is given as “Not Active” and the Ki entry is listed as “Not Active”.

With INSULIN HUMAN, the IC50 entry is given as “Not Active” and the Ki entry is on record as “Not Active”.

On to POLYVINYL ALCOHOL, for which the IC50 result is “Not Active” and the Ki entry is given as “Not Active”.

Test system in the next data set: not listed separately
The data set is described as follows: DRUGMATRIX: Glutamate, NMDA, Phencyclidine radioligand binding (ligand: [3H] TCP). In kind it is cell membranes, Rattus norvegicus, Wistar, Cerebral cortex, Membrane. The note with it: Not Active = under 50% inhibition at 10 µM.
As for `CC(C)(CO)C(O)C(=O)NCCCO` (stereo not given) [PANTHENOL], the IC50 entry is reported as “Not Active” and the Ki entry is “Not Active”.

As for `COc1ccc(Cc2nccc3cc(OC)c(OC)cc23)cc1OC` [PAPAVERINE], the IC50 entry is recorded as “Not Active” and the Ki result was “Not Active”.

For `CCCCC1C(=O)N(c2ccccc2)N(c2ccccc2)C1=O` [PHENYLBUTAZONE], the half-maximal inhibitory concentration (IC50) entry is given as “Not Active” and the Ki entry is “Not Active”.

For the compound `Cc1cccc(Nc2cc(Cl)nc(SCC(=O)O)n2)c1C` [PIRINIXIC ACID], the IC50 result is given as “Not Active” and the Ki result is “Not Active”.

As for `CC[C@H](C)C(=O)O[C@H]1C[C@H](O)C=C2C=C[C@H](C)[C@H](CC[C@@H](O)C[C@@H](O)CC(=O)O)[C@H]21` [PRAVASTATIN], the IC50 result is “Not Active” and the Ki result is recorded as “Not Active”.

As to `CC(C)(Sc1cc(C(C)(C)C)c(O)c(C(C)(C)C)c1)Sc1cc(C(C)(C)C)c(O)c(C(C)(C)C)c1` [PROBUCOL], the IC50 entry is listed as “Not Active” and the inhibition constant Ki result is on record as “Not Active”.

For the compound COBALT(II) ACETYLACETONATE, the IC50 result was “Not Active” and the Ki entry is reported as “Not Active”.

Consider INSULIN HUMAN, for which the IC50 result is given as “Not Active” and the Ki result is reported as “Not Active”.

Consider POLYVINYL ALCOHOL, for which the IC50 entry is “Not Active” and the Ki entry is reported as “Not Active”.

The next data set addresses T1, Cytochrome P450 1A2 (Homo sapiens, UniProt P05177).
T1 sequence (P05177 whole entry): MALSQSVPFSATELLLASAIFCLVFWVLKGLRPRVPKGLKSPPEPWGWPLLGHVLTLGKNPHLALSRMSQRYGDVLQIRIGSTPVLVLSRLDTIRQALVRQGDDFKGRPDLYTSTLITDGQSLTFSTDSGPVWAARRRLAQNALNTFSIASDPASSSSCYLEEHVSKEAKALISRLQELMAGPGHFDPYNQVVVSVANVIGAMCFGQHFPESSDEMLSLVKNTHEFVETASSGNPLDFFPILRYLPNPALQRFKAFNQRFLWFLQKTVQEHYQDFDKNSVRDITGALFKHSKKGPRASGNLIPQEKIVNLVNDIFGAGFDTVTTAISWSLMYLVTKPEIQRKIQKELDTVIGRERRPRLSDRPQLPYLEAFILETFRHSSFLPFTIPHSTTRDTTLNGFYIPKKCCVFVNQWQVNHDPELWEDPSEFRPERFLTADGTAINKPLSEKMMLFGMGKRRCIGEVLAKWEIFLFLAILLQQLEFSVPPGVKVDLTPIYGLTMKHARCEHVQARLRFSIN
The settings on record: bti-tn-5b1-4.
Consider `CC(C)(CO)C(O)C(=O)NCCCO` (stereo not given) [PANTHENOL], for which the IC50 entry is given as “Not Active” and the Ki entry is recorded as “Not Active”.

Take `COc1ccc(Cc2nccc3cc(OC)c(OC)cc23)cc1OC` [PAPAVERINE]: the IC50 entry was “Not Active” and the Ki entry was “Not Active”.

Consider `CCCCC1C(=O)N(c2ccccc2)N(c2ccccc2)C1=O` [PHENYLBUTAZONE], for which the IC50 result is recorded as “Not Active” and the Ki result was “Not Active”.

On to `Cc1cccc(Nc2cc(Cl)nc(SCC(=O)O)n2)c1C` [PIRINIXIC ACID], for which the IC50 result is recorded as “Not Active” and the Ki result is “Not Active”.

`CC[C@H](C)C(=O)O[C@H]1C[C@H](O)C=C2C=C[C@H](C)[C@H](CC[C@@H](O)C[C@@H](O)CC(=O)O)[C@H]21` [PRAVASTATIN]: the IC50 entry is “Not Active” and the Ki result is given as “Not Active”.

As for `CC(C)(Sc1cc(C(C)(C)C)c(O)c(C(C)(C)C)c1)Sc1cc(C(C)(C)C)c(O)c(C(C)(C)C)c1` [PROBUCOL], the IC50 result is on record as “Not Active” and the Ki result is listed as “Not Active”.

Take COBALT(II) ACETYLACETONATE: the IC50 result was “Not Active” and the Ki result is recorded as “Not Active”.

Take INSULIN HUMAN: the IC50 result is reported as “Not Active” and the Ki result is “Not Active”.

In the case of POLYVINYL ALCOHOL, the IC50 result is listed as “Not Active” and the Ki result is “Not Active”.

For the next data set, the target named is Sigma non-opioid intracellular receptor 1 (Homo sapiens, UniProt Q99720). Description: DRUGMATRIX: Sigma1 radioligand binding (ligand: [3H] Haloperidol). In kind it is cell membranes, Jurkat, Membrane. The note with it: jurkat; Not Active = under 50% inhibition at 10 µM.
Sequence of Sigma non-opioid intracellular receptor 1 (Q99720 whole entry): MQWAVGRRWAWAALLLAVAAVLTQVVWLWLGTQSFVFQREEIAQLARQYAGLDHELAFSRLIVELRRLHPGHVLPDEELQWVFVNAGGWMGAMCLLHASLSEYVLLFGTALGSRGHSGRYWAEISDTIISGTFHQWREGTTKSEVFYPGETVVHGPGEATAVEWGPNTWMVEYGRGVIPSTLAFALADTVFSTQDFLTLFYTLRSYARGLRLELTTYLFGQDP
Consider `CC(C)(CO)C(O)C(=O)NCCCO` (stereo not given) [PANTHENOL], for which the IC50 entry was “Not Active”.

Take `COc1ccc(Cc2nccc3cc(OC)c(OC)cc23)cc1OC` [PAPAVERINE]: the IC50 entry is “Not Active”.

As to `CCCCC1C(=O)N(c2ccccc2)N(c2ccccc2)C1=O` [PHENYLBUTAZONE], the IC50 result is listed as “Not Active”.

In the case of `Cc1cccc(Nc2cc(Cl)nc(SCC(=O)O)n2)c1C` [PIRINIXIC ACID], the IC50 entry is recorded as “Not Active”.

`CC[C@H](C)C(=O)O[C@H]1C[C@H](O)C=C2C=C[C@H](C)[C@H](CC[C@@H](O)C[C@@H](O)CC(=O)O)[C@H]21` [PRAVASTATIN]: the IC50 result is “Not Active”.

Turning to `CC(C)(Sc1cc(C(C)(C)C)c(O)c(C(C)(C)C)c1)Sc1cc(C(C)(C)C)c(O)c(C(C)(C)C)c1` [PROBUCOL], the IC50 entry is listed as “Not Active”.

Regarding COBALT(II) ACETYLACETONATE, the IC50 result was “Not Active” and the Ki entry is “Not Active”.

With INSULIN HUMAN, the IC50 result is “Not Active” and the Ki result is given as “Not Active”.

Regarding POLYVINYL ALCOHOL, the IC50 entry is given as “Not Active” and the Ki result was “Not Active”.

A further data set has as its target T2, 5-hydroxytryptamine receptor 1A (Rattus norvegicus, UniProt P19327). Note: in other assays of this panel Not Active means under 50% inhibition at 10 µM.
T2 sequence (P19327 whole entry): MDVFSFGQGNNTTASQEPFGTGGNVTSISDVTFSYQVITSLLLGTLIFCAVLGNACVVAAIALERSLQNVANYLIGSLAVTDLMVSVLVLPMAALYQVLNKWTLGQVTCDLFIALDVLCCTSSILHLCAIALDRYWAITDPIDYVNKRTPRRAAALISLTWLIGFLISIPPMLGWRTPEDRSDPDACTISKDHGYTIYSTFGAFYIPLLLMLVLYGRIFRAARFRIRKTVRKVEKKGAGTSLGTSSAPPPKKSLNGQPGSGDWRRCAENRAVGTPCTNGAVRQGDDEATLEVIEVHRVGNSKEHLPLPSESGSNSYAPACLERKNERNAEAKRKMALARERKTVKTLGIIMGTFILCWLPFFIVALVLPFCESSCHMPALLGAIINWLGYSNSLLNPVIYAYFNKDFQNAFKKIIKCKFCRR
In kind it is cell membranes, CHO-K1, Membrane. The note with it: cho-k1.
As to `CC(C)(CO)C(O)C(=O)NCCCO` (stereo not given) [PANTHENOL], the IC50 entry is “Not Active”.

As for `COc1ccc(Cc2nccc3cc(OC)c(OC)cc23)cc1OC` [PAPAVERINE], the IC50 entry is given as “Not Active”.

Regarding `CCCCC1C(=O)N(c2ccccc2)N(c2ccccc2)C1=O` [PHENYLBUTAZONE], the IC50 result was “Not Active”.

As to `Cc1cccc(Nc2cc(Cl)nc(SCC(=O)O)n2)c1C` [PIRINIXIC ACID], the IC50 result is “Not Active”.

With `CC[C@H](C)C(=O)O[C@H]1C[C@H](O)C=C2C=C[C@H](C)[C@H](CC[C@@H](O)C[C@@H](O)CC(=O)O)[C@H]21` [PRAVASTATIN], the IC50 entry is “Not Active”.

Regarding `CC(C)(Sc1cc(C(C)(C)C)c(O)c(C(C)(C)C)c1)Sc1cc(C(C)(C)C)c(O)c(C(C)(C)C)c1` [PROBUCOL], the IC50 result is reported as “Not Active”.

For the compound COBALT(II) ACETYLACETONATE, the IC50 entry is on record as “Not Active” and the Ki entry is listed as “Not Active”.

In the case of INSULIN HUMAN, the IC50 entry was “Not Active” and the Ki entry is listed as “Not Active”.

On to POLYVINYL ALCOHOL, for which the IC50 result is given as “Not Active” and the Ki entry was “Not Active”.
